Data published in US12692257B2, “2,4,6-tri-substituted pyrimidine compounds as ATR kinase inhibitors” (BEIJING TIDE PHARMACEUTICAL CO., LTD., priority 2020, dated 2026).

Experiments:
MV4-11 (leukemia) = test: Cell proliferation inhibition in vitro, CellTiter-Glo, MV4-11; format: cell-based; settings: Homo sapiens; MV4-11 cells, 120 hours, CellTiter-Glo; read-out: MV4-11/IC50/μM
Description: (§1) By detecting the effect of compounds on cell activity in vitro in tumor cell lines TOV21G (ovarian cancer) and MV4-11 (leukemia), the inhibitory effect of compounds on cell proliferation was studied in this assay.
(§2) TOV21G cells and MV4-11 cells were purchased from American Type Culture Collection (ATCC).
MV-4-11 cells were cultured in IMDM medium (containing 20% of FBS). About 10,000 cells were inoculated in each well of a 96-well culture plate, and treated by adding different concentrations (0-10 μM) of compounds to be assayed. Each group was assayed in triplicate. Blank wells (containing medium only) and control wells (inoculated cells without being treated with drug) were set. Cells were cultured for 120 hours. 40 μL of Cell Titer-Glo solutions were added to each well, and the cells were incubated with shaking for 20 min in the dark. 100 μL of solution was transferred from each well to a 96-well blank plate, and the luminescence value was read by Biotek Synergy HI multifunctional microplate reader. Inhibition rate (%)=100%×(control well−assay well)/(control well−blank well)

[1] = In vivo oral administration pharmacokinetics in mice; design: AUC: concentration or dose not given beside the values; settings: mouse
Description: Based on the in vitro activity results, representative compounds were selected for in vivo pharmacokinetic studies.
In Vivo Oral Administration—Pharmacokinetic Results in Mice: […]

[2] = In vitro stability in mouse liver microsome; format: in vitro ADME; settings: liver microsomes, read-out: Mouse liver microsome t1/2
Description: (§3) Based on the in vitro activity results, representative compounds were selected for assay studies on the stability in liver microsome, and the results were as follows.

[3] = In vitro stability in human liver microsome; format: in vitro ADME; settings: liver microsomes, read-out: Human liver microsome t1/2
Description: as §3

TOV21G (ovarian cancer) = test: Cell proliferation inhibition in vitro, CellTiter-Glo, TOV21G; format: cell-based; settings: Homo sapiens; TOV21G cells, 120 hours, CellTiter-Glo; read-out: TOV21G/IC50/μM
Description: as §1, §2
TOV21G cells were cultured in MCDB105/M199 medium (containing 15% of FBS), and used for assaying when the cell confluence reached 85% or more. About 1000 cells were inoculated in each well of a 96-well culture plate, and cultured for 24 hours. Different concentrations (0-10 μM) of compounds to be assayed were added to treat the cells. Each group was assayed in triplicate. Blank wells (containing medium only) and control wells (inoculated cells without being treated with drug) were set. Cells were cultured for 120 hours. 40 μL of Cell Titer-Glo solutions (Promega, #G7573) were added to each well, and the cells were incubated with shaking for 20 min in the dark. 100 μL of solution was transferred from each well to a 96-well blank plate (Corning, #3917), and the luminescence value was read by Biotek Synergy H1 multifunctional microplate reader.

ATR kinase = ATR kinase (Homo sapiens, UniProt Q13535); test: Assay of ATR kinase activity (time-resolved fluorescence, phosphorylation of p53-derived protein); format: biochemical
ATR kinase, sequence (Q13535 whole entry): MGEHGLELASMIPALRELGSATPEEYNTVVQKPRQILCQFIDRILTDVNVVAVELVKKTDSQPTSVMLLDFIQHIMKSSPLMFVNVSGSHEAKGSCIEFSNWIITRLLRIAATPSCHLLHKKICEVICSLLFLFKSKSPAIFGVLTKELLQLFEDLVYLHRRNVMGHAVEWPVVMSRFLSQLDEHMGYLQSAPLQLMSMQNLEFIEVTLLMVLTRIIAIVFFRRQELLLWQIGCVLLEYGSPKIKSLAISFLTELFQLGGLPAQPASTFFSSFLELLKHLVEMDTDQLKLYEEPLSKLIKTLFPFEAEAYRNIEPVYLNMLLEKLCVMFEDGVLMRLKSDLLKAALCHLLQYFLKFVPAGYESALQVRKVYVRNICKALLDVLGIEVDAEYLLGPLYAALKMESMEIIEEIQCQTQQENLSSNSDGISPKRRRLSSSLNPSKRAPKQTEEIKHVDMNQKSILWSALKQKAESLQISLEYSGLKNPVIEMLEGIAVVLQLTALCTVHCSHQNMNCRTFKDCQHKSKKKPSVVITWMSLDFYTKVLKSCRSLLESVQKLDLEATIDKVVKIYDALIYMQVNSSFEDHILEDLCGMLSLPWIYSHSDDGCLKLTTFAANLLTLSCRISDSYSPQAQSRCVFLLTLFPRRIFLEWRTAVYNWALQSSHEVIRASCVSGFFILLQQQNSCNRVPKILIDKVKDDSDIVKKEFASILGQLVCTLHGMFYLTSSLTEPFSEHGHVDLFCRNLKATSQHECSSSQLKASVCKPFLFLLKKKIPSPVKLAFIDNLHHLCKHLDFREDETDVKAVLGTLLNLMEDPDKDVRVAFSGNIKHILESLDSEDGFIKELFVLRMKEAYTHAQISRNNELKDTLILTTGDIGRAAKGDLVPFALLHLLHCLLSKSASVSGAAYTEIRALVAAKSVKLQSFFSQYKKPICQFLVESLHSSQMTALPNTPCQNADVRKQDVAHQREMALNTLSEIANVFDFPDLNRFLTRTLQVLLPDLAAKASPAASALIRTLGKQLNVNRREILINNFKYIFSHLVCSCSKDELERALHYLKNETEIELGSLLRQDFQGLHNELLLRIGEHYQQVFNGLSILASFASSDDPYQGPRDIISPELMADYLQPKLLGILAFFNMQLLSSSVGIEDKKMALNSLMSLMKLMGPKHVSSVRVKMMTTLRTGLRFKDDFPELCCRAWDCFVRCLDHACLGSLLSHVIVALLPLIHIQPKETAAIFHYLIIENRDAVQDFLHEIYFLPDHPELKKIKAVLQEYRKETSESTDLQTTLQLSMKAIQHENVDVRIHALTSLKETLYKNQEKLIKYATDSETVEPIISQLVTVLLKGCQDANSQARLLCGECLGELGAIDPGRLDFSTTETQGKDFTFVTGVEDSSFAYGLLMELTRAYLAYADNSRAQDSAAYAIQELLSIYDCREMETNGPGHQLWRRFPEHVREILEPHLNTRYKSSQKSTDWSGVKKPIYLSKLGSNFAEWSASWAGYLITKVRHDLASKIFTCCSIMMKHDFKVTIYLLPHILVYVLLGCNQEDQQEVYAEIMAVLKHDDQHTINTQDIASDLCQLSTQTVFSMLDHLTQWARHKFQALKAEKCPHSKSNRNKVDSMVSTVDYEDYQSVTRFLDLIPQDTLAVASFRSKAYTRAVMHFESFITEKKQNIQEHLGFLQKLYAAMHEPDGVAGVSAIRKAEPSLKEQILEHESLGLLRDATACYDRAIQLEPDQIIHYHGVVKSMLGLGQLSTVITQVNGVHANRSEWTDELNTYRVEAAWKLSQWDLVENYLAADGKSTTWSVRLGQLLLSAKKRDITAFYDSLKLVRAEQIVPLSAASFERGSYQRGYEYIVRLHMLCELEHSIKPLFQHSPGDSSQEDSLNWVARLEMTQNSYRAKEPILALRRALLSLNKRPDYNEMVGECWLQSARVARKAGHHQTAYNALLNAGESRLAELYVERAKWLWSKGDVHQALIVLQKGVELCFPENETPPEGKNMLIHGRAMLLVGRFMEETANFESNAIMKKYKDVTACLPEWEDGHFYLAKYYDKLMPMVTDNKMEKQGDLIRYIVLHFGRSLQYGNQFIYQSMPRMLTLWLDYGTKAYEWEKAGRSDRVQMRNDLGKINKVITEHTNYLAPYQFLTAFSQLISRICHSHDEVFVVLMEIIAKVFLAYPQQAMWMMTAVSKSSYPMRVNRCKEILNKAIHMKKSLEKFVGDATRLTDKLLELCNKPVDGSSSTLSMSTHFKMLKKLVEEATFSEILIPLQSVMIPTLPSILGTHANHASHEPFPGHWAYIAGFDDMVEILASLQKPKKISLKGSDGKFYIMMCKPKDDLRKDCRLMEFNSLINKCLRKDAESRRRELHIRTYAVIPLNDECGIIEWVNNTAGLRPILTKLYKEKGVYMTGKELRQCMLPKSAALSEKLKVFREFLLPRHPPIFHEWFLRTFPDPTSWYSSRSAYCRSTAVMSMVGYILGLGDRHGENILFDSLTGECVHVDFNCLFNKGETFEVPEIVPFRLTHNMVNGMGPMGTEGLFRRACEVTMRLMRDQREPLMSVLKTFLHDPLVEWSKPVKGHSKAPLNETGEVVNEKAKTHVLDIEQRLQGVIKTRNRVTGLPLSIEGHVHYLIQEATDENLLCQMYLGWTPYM
ATR kinase, sequence (Q8WXE1 whole entry partner): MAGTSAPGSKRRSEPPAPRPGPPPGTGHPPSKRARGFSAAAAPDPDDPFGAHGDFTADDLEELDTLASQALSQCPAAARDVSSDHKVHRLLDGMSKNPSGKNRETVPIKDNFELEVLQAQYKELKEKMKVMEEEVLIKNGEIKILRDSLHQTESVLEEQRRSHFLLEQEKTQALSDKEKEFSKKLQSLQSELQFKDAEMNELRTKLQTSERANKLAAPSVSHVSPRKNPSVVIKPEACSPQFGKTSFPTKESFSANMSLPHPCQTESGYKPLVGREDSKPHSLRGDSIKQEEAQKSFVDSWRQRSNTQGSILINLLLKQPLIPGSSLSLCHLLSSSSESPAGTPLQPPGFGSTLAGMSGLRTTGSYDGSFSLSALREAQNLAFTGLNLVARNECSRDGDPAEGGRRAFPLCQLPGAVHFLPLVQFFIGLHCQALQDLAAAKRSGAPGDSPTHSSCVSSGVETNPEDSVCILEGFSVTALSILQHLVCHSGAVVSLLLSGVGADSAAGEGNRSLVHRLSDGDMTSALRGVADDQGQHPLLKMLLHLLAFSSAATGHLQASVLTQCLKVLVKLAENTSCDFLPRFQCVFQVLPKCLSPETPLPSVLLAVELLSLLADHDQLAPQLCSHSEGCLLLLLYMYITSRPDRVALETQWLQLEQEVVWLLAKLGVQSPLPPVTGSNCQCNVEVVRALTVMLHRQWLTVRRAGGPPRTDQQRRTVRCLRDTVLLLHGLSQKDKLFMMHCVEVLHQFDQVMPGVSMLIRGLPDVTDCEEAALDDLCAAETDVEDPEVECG
Description: Biotinylated protein derived from p53 (Eurofins, art. No.: 14-952) was phosphorylated with ATR kinase. The amount of phosphorylated protein was determined by time-resolved fluorescence in this assay. The amount of phosphorylated protein was detected by anti-p53-phospho-(serine 15)-K-specific antibody (Cisbio, art. No.: 61GSTDLA) and d2 labeled anti-GST antibody (Cisbio, art. No. 61P08KAE). Before the assay, the following working solutions were formulated as required: 1×reaction buffer (20 mM HEPES PH8.0, 1% glycerol, 0.01% Brij-35), dilution buffer (20 mM HEPES PH8.0, 1% glycerol, 0.01% Brij-35, 5 mM DTT and 1% BSA), stop solution (20 mM HEPES PH8.0, 1% glycerol, 0.01% Brij-35, 250 mM EDTA), detection buffer (50 mM HEPES pH7.0, 150 mM NaCl, 267 mM KF, 0.1% sodium cholate, 0.01% Tween-20, 0.0125% sodium azide). The reagents used above were purchased from Sigma or Invitrogen, except for those whose manufacturers were mentioned.
Operations were as follows:
4× serially diluted compound solutions were prepared with 1× reaction buffer to give 9 compound solutions with different concentrations, and 2.5 μL of the 4× serially diluted compound solutions were added to a 384-well analysis plate (784075, Greiner). 4×p53 substrate working solution (40 nM) was prepared with 1× reaction buffer, and 2.5 μL of the 4×p53 substrate working solution was added to a 384-well analysis plate. 4×ATR/ATRIP working solution (12.8 ng/μL) was prepared with dilution buffer, and 2.5 μL of the 4×pATR/ATRIP working solution was added to a 384-well analysis plate. 4×ATP working solution (2 mM) was prepared with deionized water, and 2.5 μL of the 4×ATP working solution was added to a 384-well analysis plate. The plates were incubated at room temperature in dark for 30 minutes. 5 μL of stop solution was added to the 384 analysis plates. Finally, 5 μL of assay mixture (0.084 ng/μL Anti-phospho-p53(ser15)-K and 5 ng/μL Anti-GST-d2) was added to the 384 well analysis plates, and incubated at room temperature overnight. The fluorescence signal was detected with ENVISION (Perkinelmer) instrument (excitation wavelength: 320 nm, emission wavelength: 665 nm and 615 nm). The inhibition rate in each well was calculated by the fluorescence intensity value in each well:ER (Emission Ratio)=(Fluorescence intensity at 665 nm/Fluorescence intensity at 615 nm); inhibition rate=(ER of positive−ER of assay compound)/(ER of positive−ER of negative)×100%. IC50 values of compounds were calculated by standard software for parameter fitting (GraphPad Prism 6.0).

ATM = ATM (Homo sapiens, UniProt Q13315); test: Kinase selectivity: inhibitory activity against ATM; format: biochemical; settings: 10 concentrations, 10 μM to 0.51 nM
Description: (§4) The compound of the present disclosure was assayed for inhibition of the same family (ATM, DNA-PK and mTOR):
(§5) According to the assay method reported in the literature, the compound to be assayed was serially diluted 3-fold to 0.51 nM starting from 10 μM (a total of 10 concentrations), and assayed for the inhibitory activities against kinases ATM^1, DNA-PK^2 and mTOR^3, respectively.

DNA-PK = DNA-PK (Homo sapiens, UniProt P78527); test: Kinase selectivity: inhibitory activity against DNA-PK; format: biochemical; settings: 10 concentrations, 10 μM to 0.51 nM; read-out: IC50/DNAPK
Description: as §4, §5

mTOR = mTOR (Homo sapiens, UniProt P42345); test: Kinase selectivity: inhibitory activity against mTOR; format: biochemical; settings: 10 concentrations, 10 μM to 0.51 nM
Description: as §4, §5

SMILES	IC50 (MV4-11 (leukemia)) [µM]	AUC [1] [ng·h/mL]	Cmax [1] [ng/mL]	Tmax [1] [h]	half-life [1] [h]	half-life [2] [h]	half-life [3] [h]	IC50 (TOV21G (ovarian cancer)) [µM]	IC50 (ATR kinase) [nM]	IC50 (ATM) [µM]	IC50 (DNA-PK) [µM]	IC50 (mTOR) [µM]
Cc1nn(-c2cncc(F)c2)c(C)c1-c1cc(N2CCOC[C@H]2C)nc(-c2ccnc3[nH]ccc23)n1 [Compound A19]	0.312	1730	331	1	2.4			0.237	2			
CNc1nc2ccccc2n1-c1nc(-c2c(C)nn(-c3cncc(F)c3)c2C)cc(N2CCOC[C@H]2C)n1 [Compound B1]	0.231	8750	1450	2.8	4.3			0.194	11			
CNc1nc2ccccc2n1-c1nc(-c2c(C)nn(-c3ccc(OC)nc3)c2C)cc(N2CCOC[C@H]2C)n1 [Compound B7]	0.549							0.544	62			

These reach a lower IC50 (MV4-11 (leukemia)). Values come first.

IC50 (MV4-11 (leukemia)) [µM]	AUC [1] [ng·h/mL]	Cmax [1] [ng/mL]	Tmax [1] [h]	half-life [1] [h]	half-life [2] [h]	half-life [3] [h]	IC50 (TOV21G (ovarian cancer)) [µM]	IC50 (ATR kinase) [nM]	IC50 (ATM) [µM]	IC50 (DNA-PK) [µM]	IC50 (mTOR) [µM]	SMILES
0.214	15200	1470	3.3	3	2.23	0.733	0.291	10				Cc1nn(-c2cncc(F)c2)c(C)c1-c1cc(N2CCOC[C@H]2C)nc(-c2cc(F)cc3[nH]ccc23)n1 [Compound A11]
0.169	1200	865	0.33	1.4			0.457	5	2.59	0.284	1.16	Cc1nn(-c2cncc(F)c2)c(C)c1-c1cc(N2CCOC[C@H]2C)nc(-c2cc(CO)cc3[nH]ccc23)n1 [Compound A22]
0.19	8210	815	1.75	2.3	1.02	1.08	0.196	5				Cc1nn(-c2cncc(F)c2)c(C)c1-c1cc(N2CCOC[C@H]2C)nc(-c2cccc3[nH]ccc23)n1 [Compound A17]
